From patent US8067627B2, “Zinc-monocysteine complex and method of using zinc-cysteine complexes” (priority 2000, dated 2011)

Legend:
Format in all cases: cell-based
metallothionein = test: Metallothionein in cultured retinal pigment epithelial cells; settings: 0, 15, 30 or 100 μM, compared with zinc acetate, zinc chloride, zinc sulfate
Protocol: (§1) The biological efficacy was tested by adding 0, 15, 30 or 100 μM of zinc cysteine to cultured retinal pigment epithelial cells in comparison to zinc salts (zinc acetate, zinc chloride, and zinc sulfate).
(§2) The complex of zinc-cysteine increased the activity of antioxidant enzymes catalase and glutathione peroxidase, and the antioxidant protein metallothionein in cultured retinal pigment epithelial cells more efficiently and potently than zinc acetate, zinc chloride, and zinc sulfate. […] The zinc-cysteine complex may be readily absorbed and distributed inside the cell to provide beneficial needs in regulating the antioxidant economy.

catalase = test: Catalase activity in cultured retinal pigment epithelial cells; settings: 0, 15, 30 or 100 μM, compared with zinc acetate, zinc chloride, zinc sulfate
Protocol: as §1, §2

glutathione peroxidase = test: Glutathione peroxidase activity in cultured retinal pigment epithelial cells; settings: 0, 15, 30 or 100 μM, compared with zinc acetate, zinc chloride, zinc sulfate
Protocol: as §1, §2

RPE cells = test: Protection of RPE cells from increasing hydrogen peroxide concentrations; settings: compared with the zinc salts (zinc acetate, zinc chloride, zinc sulfate)
Protocol: as §1, §2

SMILES | antioxidant protein metallothionein (metallothionein) | activity of antioxidant enzyme catalase (catalase) | activity of antioxidant enzyme glutathione peroxidase (glutathione peroxidase) | protecting RPE cells from increasing hydrogen peroxide concentrations (RPE cells)
N[C@@H](CS)C(=O)O [cysteine] | did not have an effect | did not have an effect |  | 
NC1C[S][Zn][O]C1=O (stereo not drawn) [zinc-cysteine, zinc-monocysteine complex] | increased | increased | increased | more potent
